Laboratory results reported in ChEMBL document CHEMBL5518182, “Discovery and development of BI 1265162, an ENaC inhibitor for the treatment of cystic fibrosis” (Eur J Med Chem, 2024).
Active and inactive are the calls of the source. The rule behind the calls is not given here.

Tests used:
[1] = molecular target: Cytochrome P450 2C19 (Homo sapiens, UniProt P33261); assay: Inhibition of CYP2C19 in human liver microsomes using (S)-mephenytoin as substrate in presence of NADPH by LC-MS/MS analysis; format: ADME, Microsome
Sequence of Cytochrome P450 2C19 (P33261 whole entry): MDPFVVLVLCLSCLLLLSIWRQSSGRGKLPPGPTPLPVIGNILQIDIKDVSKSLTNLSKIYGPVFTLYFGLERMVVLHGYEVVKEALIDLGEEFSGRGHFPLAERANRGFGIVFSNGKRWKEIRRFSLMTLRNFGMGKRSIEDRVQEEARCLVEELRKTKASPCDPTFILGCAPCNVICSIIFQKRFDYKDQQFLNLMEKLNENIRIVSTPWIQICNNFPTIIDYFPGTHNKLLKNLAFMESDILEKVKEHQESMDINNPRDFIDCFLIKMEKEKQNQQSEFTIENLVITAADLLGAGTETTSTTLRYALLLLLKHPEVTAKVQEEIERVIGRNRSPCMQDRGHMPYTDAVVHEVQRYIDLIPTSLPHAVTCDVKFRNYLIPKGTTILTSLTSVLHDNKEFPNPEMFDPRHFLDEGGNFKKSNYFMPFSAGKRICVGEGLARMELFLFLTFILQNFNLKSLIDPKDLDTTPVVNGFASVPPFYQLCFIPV

[2] = Genotoxicity in Salmonella typhimurium TA98 incubated for 48 hrs in presence of rat liver S9 fraction by Ames test; format: toxicity, subcellular; details: salmonella enterica subsp. enterica serovar typhimurium, s9, 48 h
[3] = Cytotoxicity against human U-937 cells by MTT assay; format: toxicity, cell-based
[4] = Cytotoxicity against rat hepatocytes by LDH assay; format: toxicity, cell-based, Hepatocyte
[5] = Genotoxicity in Salmonella typhimurium TA1535 incubated for 48 hrs in presence of rat liver S9 fraction by Ames test; format: toxicity, subcellular; details: salmonella enterica subsp. enterica serovar typhimurium, s9, 48 h
[6] = molecular target: Cytochrome P450 3A4 (Homo sapiens, UniProt P08684); assay: Inhibition of CYP3A4 in human liver microsomes using midazolam as substrate in presence of NADPH by LC-MS/MS analysis; format: ADME, Microsome
Sequence of Cytochrome P450 3A4 (P08684 whole entry): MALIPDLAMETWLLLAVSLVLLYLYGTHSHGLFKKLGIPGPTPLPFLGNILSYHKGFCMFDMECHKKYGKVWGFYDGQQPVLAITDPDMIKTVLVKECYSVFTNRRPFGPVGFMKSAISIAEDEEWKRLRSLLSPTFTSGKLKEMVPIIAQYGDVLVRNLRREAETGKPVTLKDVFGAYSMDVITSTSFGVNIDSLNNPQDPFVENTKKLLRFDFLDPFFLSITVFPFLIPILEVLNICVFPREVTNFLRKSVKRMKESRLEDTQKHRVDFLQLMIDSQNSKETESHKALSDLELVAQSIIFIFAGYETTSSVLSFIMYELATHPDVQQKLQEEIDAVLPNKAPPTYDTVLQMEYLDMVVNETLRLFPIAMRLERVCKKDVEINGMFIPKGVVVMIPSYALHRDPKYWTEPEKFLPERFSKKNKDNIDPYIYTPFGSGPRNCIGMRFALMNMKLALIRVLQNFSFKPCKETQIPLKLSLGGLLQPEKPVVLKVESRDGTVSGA

[7] = test system: Rattus norvegicus; assay: Acute effect on Han Wistar rat model of lung fluid absorption administered intratracheally measured after 3 hrs; format: functional; details: route it(Intratracheal)
[8] = Drug uptake in Han Wistar rat lung at 10 ug/kg, IT(Intratracheal) measured after 3 hrs by HPLC-TMS analysis; format: ADME, tissue-based; details: in vivo, inhaled_or_intranasal, 0.01 mg/kg, dose 10 µg/kg
[9] = molecular target: Acetylcholinesterase (Homo sapiens) (UniProt P22303); assay: Inhibition of AChE (unknown origin) at 10 uM relative to control
Sequence of Acetylcholinesterase (Homo sapiens) (P22303 whole entry): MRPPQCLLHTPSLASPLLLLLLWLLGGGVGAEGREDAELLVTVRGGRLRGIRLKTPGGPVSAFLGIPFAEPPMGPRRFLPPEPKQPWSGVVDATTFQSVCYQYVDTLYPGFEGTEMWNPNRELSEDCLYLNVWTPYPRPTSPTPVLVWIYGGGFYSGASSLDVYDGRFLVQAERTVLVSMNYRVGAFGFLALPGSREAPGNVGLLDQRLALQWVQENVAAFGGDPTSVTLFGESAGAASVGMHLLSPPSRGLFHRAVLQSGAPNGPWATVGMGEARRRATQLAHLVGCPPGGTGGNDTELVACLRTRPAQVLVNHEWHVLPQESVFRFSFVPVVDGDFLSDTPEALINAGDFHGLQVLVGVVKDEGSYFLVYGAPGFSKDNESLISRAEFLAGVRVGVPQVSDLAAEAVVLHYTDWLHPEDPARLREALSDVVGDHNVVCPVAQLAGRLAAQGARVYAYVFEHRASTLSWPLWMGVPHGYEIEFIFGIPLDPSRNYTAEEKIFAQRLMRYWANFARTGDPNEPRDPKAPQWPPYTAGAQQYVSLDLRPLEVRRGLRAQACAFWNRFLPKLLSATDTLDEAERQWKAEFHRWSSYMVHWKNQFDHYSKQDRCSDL

[10] = Permeability across apical to basal side in human Caco-2 cells by LC-MS/MS analysis; format: ADME, cell-based; details: read-out: permeability
[11] = Permeability of compound by PAMPA assay; format: ADME; details: read-out: permeability
[12] = Genotoxicity in Salmonella typhimurium TA100 incubated for 48 hrs in presence of rat liver S9 fraction by Ames test; format: toxicity, subcellular; details: salmonella enterica subsp. enterica serovar typhimurium, s9, 48 h
[13] = Clearance in Han Wistar rat assessed as liver blood flow at 0.5 umol/kg; format: ADME, tissue-based; details: in vivo, at 0.5 µmol/kg
[14] = test system: M1 cell; assay: Inhibition of ENaC-mediated water resorption in mouse M1 cells at 3 uM by radiometric dilution assay relative to control; format: cell-based
[15] = test system: Rattus norvegicus; assay: Upregulation of serum aldosterone level in Han Wistar rat model of lung fluid absorption at 3 ug/kg, IT(Intratracheal) measured after 3 hrs relative to control; format: functional; details: dose 3 µg/kg
[16] = test system: Lung; assay: Inhibition of lung water resorption in Wistar rat at 0.3 ug/kg, IT(Intratracheal) incubated for 3 hrs relative to control; format: functional
[17] = Metabolic stability in human liver microsomes assessed as liver blood flow at 1 uM by LC-MS/MS analysis; format: ADME, Microsome; details: read-out: QH
[18] = Metabolic stability in rat liver microsomes assessed as liver blood flow at 1 uM by LC-MS/MS analysis; format: ADME, Microsome; details: read-out: QH
[19] = test system: Rattus norvegicus; assay: Effect on Han Wistar rat model of lung fluid absorption at ED70 administered intratracheally measured after 20 hrs; format: functional; details: route it(Intratracheal)
[20] = Metabolic stability in rat hepatocytes assessed as liver blood flow at 1 uM incubated for 6 hrs by HPLC-MS/MS analysis; format: ADME, cell-based, Hepatocyte; details: read-out: QH
[21] = test system: Lung; assay: Inhibition of lung water resorption in Wistar rat at 3 ug/kg, IT(Intratracheal) incubated for 3 hrs relative to control; format: functional
[22] = molecular target: Cytochrome P450 2D6 (Homo sapiens, UniProt P10635); assay: Inhibition of CYP2D6 in human liver microsomes using dextromethorphan as substrate in presence of NADPH by LC-MS/MS analysis; format: ADME, Microsome
Sequence of Cytochrome P450 2D6 (P10635 whole entry): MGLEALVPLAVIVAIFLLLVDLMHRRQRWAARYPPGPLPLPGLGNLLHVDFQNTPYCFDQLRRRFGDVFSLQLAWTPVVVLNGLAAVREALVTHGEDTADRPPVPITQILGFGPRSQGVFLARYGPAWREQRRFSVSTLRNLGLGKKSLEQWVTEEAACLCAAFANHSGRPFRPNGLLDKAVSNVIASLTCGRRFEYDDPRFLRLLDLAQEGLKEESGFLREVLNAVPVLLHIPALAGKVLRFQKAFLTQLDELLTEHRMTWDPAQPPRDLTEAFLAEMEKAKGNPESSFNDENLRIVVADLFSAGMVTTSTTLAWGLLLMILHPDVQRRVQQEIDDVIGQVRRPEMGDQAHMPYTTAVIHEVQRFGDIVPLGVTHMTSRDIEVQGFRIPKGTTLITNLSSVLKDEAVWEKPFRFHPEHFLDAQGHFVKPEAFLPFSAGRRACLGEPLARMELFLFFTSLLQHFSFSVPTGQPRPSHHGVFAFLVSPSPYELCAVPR

[23] = Solubility of compound at pH 5; format: physicochemical; details: buffer
[24] = MRT in Han Wistar rat; format: ADME; details: in vivo
[25] = Genotoxicity in Escherichia coli WP2 uvrA (pKM 101) incubated for 48 hrs in presence of rat liver S9 fraction by Ames test; format: toxicity, subcellular; details: s9, 48 h
[26] = Lipophilicity, logD of compound at pH 7.4; format: physicochemical; details: buffer
[27] = Cytotoxicity against human 16HBE14o- cells by plasma damage based analysis; format: toxicity, cell-based
[28] = molecular target: Cytochrome P450 2C9 (Homo sapiens, UniProt P11712); assay: Inhibition of CYP2C9 in human liver microsomes using diclofenac as substrate in presence of NADPH by LC-MS/MS analysis; format: ADME, Microsome
Sequence of Cytochrome P450 2C9 (P11712 whole entry): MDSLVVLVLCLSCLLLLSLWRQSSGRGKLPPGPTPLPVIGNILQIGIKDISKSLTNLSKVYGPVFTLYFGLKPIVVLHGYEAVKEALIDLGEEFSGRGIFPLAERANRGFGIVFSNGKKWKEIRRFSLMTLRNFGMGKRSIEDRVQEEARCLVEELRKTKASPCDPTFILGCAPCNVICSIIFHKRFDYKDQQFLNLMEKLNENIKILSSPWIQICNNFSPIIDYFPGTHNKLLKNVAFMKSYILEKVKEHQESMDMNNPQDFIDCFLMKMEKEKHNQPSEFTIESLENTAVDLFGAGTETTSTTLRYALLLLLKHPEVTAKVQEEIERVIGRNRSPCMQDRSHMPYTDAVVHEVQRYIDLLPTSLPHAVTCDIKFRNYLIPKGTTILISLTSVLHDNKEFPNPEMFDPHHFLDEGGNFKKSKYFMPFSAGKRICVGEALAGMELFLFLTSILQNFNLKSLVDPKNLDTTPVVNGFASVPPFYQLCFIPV

[29] = molecular target: T1, Cytochrome P450 1A2 (Homo sapiens, UniProt P05177); assay: Inhibition of CYP1A2 in human liver microsomes in presence of NADPH by LC-MS/MS analysis; format: ADME, Microsome
T1 sequence (P05177 whole entry): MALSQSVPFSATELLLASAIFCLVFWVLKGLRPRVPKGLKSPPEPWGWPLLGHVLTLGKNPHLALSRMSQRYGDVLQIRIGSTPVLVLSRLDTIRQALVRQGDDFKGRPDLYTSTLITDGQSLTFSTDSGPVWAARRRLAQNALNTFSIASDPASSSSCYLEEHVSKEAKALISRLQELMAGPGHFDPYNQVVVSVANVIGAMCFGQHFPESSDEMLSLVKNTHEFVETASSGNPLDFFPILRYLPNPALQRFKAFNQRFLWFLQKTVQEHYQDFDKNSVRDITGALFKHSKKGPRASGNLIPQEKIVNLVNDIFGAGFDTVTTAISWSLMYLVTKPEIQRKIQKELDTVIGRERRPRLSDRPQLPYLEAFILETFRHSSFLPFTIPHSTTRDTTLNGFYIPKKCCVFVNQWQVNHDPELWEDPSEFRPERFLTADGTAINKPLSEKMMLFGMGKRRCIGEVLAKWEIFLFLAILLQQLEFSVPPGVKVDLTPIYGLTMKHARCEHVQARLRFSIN

[30] = Metabolic stability in human hepatocytes assessed as liver blood flow at 1 uM incubated for 6 hrs by HPLC-MS/MS analysis; format: ADME, cell-based, Hepatocyte; details: read-out: QH
[31] = organism: Rattus norvegicus; assay: Upregulation of serum potassium level in Han Wistar rat; format: functional, organism-based
[32] = Permeability across basal to apical side in human Calu-3 cells at 0.1 to 300 uM measured upto 2 hrs by HPLC-MS/MS analysis; format: ADME, cell-based; details: dose 0.1-300 µM, read-out: permeability
[33] = Genotoxicity in Salmonella typhimurium TA1537 incubated for 48 hrs in presence of rat liver S9 fraction by Ames test; format: toxicity, subcellular; details: salmonella enterica subsp. enterica serovar typhimurium, s9, 48 h
[34] = Inhibition of ENaC in mouse M1 cells upto 10 uM by chamber assay; format: cell-based; details: m1 cell
[35] = molecular target: BK channel (Homo sapiens, UniProt Q12791); assay: Inhibition of BK channel (unknown origin) at 10 uM relative to control; format: toxicity
[36] = molecular target: CaV3.1 (Homo sapiens, UniProt O43497); assay: Inhibition of CaV3.1 (unknown origin) at 10 uM relative to control; format: toxicity
Sequence of CaV3.1 (O43497 whole entry): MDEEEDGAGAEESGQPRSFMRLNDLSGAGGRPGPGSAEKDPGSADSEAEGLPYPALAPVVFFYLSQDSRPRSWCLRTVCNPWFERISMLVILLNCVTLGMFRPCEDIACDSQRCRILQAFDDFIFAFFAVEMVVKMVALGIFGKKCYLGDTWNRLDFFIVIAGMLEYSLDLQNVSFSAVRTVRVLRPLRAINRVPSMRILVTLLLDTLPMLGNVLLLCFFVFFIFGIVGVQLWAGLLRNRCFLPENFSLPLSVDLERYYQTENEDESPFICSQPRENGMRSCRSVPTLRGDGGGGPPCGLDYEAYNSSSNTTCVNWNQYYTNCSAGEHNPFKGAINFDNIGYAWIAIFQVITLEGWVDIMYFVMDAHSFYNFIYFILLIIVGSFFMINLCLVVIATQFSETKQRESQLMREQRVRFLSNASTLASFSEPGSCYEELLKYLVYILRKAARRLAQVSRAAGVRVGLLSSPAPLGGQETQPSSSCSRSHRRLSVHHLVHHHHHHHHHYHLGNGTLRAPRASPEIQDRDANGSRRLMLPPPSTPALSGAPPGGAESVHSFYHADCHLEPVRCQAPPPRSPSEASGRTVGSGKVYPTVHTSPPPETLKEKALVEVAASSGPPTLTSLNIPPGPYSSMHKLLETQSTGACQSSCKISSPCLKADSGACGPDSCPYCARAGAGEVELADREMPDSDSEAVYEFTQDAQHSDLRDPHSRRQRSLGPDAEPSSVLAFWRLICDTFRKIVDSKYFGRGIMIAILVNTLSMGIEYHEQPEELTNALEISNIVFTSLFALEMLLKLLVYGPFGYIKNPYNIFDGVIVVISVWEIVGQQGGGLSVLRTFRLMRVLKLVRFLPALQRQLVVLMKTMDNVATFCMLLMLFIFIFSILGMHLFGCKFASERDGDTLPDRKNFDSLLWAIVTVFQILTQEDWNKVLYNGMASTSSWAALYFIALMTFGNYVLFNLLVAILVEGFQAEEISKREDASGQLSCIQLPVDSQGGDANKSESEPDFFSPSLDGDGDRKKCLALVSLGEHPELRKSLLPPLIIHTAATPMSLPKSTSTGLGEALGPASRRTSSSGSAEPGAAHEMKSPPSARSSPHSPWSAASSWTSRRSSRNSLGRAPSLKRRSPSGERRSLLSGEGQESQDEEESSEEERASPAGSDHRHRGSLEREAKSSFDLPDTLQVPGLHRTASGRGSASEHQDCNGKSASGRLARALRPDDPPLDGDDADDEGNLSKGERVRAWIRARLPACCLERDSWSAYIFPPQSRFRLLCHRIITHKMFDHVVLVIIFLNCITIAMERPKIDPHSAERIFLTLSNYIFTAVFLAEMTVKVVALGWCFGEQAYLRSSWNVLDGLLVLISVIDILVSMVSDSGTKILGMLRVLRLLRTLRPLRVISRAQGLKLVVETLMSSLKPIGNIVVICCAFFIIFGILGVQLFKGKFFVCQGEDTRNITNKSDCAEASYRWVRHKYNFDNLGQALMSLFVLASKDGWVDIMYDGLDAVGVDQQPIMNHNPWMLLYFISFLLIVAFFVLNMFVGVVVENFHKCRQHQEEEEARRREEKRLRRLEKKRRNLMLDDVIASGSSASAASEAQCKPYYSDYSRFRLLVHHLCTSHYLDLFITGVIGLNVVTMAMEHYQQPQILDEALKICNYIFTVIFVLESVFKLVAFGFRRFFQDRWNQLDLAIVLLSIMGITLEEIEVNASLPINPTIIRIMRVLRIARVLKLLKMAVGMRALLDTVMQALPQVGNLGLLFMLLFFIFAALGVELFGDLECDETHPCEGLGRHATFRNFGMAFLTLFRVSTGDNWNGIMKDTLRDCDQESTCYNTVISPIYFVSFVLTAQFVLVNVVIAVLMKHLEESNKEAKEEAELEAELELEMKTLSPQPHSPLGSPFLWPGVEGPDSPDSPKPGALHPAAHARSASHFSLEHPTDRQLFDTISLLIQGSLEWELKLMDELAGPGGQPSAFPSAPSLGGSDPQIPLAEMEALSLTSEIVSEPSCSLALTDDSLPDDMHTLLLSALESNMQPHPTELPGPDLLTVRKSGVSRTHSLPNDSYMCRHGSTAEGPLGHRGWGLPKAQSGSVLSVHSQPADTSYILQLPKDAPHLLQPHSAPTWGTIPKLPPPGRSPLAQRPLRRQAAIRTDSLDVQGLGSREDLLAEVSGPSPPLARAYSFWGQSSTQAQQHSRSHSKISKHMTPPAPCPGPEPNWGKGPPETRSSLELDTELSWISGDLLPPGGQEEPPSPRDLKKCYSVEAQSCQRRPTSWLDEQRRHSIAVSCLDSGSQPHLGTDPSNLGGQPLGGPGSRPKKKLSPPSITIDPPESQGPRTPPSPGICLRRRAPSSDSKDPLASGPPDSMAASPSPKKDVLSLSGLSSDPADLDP

[37] = molecular target: CaV3.2 (Homo sapiens, UniProt O95180); assay: Inhibition of CaV3.2 (unknown origin) at 10 uM relative to control; format: toxicity
[38] = Drug uptake in Han Wistar rat lung at 8 ug/kg, IT(Intratracheal) measured after 3 hrs by HPLC-TMS analysis; format: ADME, tissue-based; details: in vivo, inhaled_or_intranasal, 0.008 mg/kg, dose 8 µg/kg
[39] = Oral bioavailability in Han Wistar rat; format: ADME, organism-based; details: in vivo
[40] = molecular target: CFTR (Homo sapiens, UniProt P13569); assay: Inhibition of CFTR (unknown origin) at 10 uM relative to control; format: toxicity

SMILES	IC50 [1] [µM]	Activity [2]	IC50 [3] [µM]	IC50 [4] [µM]	Activity [5]	IC50 [6] [µM]	Papp A→B [10] [nm/s]	Papp [11] [nm/s]	Activity [12]	QH [13] [%]	hepatic extraction ratio at 1 µM [17]	hepatic extraction ratio at 1 µM [18]	hepatic extraction ratio at 6 h, 1 µM [20]	IC50 [22] [µM]	solubility [23] [%]	MRT [24] [min]	Activity [25]	logD [26]	IC50 [27] [µM]	IC50 [28] [µM]	further results
CCn1c(CNC(=O)c2nc(Cl)cnc2N)[n+](CC)c2ccc(C(=O)N(C)CCN(C)C)cc21	> 50	Non-Toxic	> 800	> 800	Non-Toxic	> 50	< 2	< 0.2	Non-Toxic	84	< 0.23	< 0.23	0.2	> 50	> 2	18	Non-Toxic	0.2	> 800	> 50	ED50 [7]: 0.1 µg/kg; ED70 [7]: 0.13 µg/kg; Drug uptake [8]: 55%; inhibition [9]: 44%; inhibition [14]: 81%; Activity [15]: <25%; inhibition in vivo at 0.0003 mg/kg [16]: 27%; Efficacy [19]: 39%; inhibition in vivo at 0.003 mg/kg [21]: 33%; IC50 [29]: > 50 µM; hepatic extraction ratio at 6 h, 1 µM [30]: 0.2; Activity [31]: inactive; Papp B→A at 2 h, up to 300 µM [32]: < 2.1 nm/s; Activity [33]: Non-Toxic; IC50 [34]: 0.0062 µM
CCn1c(CNC(=O)c2nc(Cl)cnc2N)[n+](CC)c2ccc(OCC(=O)NCCOCP(C)(C)=O)cc21	> 50	Non-Toxic	> 800	> 800	Non-Toxic	> 50	6	< 0.5	Non-Toxic	79	< 0.23	< 0.23	0.28	> 50	> 5	18	Non-Toxic	0.1	> 800	> 50	inhibition at 10 µM [35]: < 50%; inhibition at 10 µM [36]: < 50%; inhibition at 10 µM [37]: < 50%; Drug uptake [38]: 26%; bioavailability [39]: < 5%; inhibition at 10 µM [40]: < 50%; IC50 [29]: > 50 µM; hepatic extraction ratio at 6 h, 1 µM [30]: 0.17; Papp B→A at 2 h, up to 300 µM [32]: 3.7 nm/s; Activity [33]: Non-Toxic
